Reference: patent US9073895B2 (Boehringer Ingelheim International GmbH, priority 2010, dated 2015)

Experiments:
[1] = biological target: T1, recombinant human FLAP protein (Homo sapiens, UniProt P20292); assay: FLAP binding assay (SPA, displacement of [125I]L-691,831); conditions: membranes of sf9 cells expressing human FLAP, [125I]L-691,831 probe; read-out: hFLAP binding IC50
T1 construct: made in house; host or cells: Sf9 insect cells (membrane fraction, 100,000 x g pellet)
T1 sequence (P20292 1-161): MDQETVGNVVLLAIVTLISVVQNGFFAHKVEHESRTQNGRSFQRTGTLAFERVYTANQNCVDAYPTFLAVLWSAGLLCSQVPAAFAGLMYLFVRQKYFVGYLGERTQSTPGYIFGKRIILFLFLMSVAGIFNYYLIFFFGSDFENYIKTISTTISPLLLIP
Outline: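 Membranes from sf9 cells expressing human FLAP (5 μg/well) were bound to WGA SPA beads (200 μg/well). Nonspecific binding was defined with 10 μM unlabelled L-691,831.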

[2] = tested on: synthesis of LTB4 in human whole blood; assay: Human whole blood LTB4 production inhibition assay; format: cell-based; conditions: heparinized human whole blood, calcimycin 20 μM, plasma LTB4; read-out: HuWB IC50
Outline: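 Heparinized human whole blood was preincubated with compound for 15 min at 37° C, then stimulated with calcimycin (20 μM final, in PBS pH 7.4) for a further 30 min at 37° C. Plasma LTB4 was quantified by antibody-based homogeneous time-resolved fluorescence.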

Cc1nc(-c2ccc(NC(=O)C3(c4ccc(-c5cnc(N)nc5)cc4)CCCCC3)nc2)cs1 [Example 123, 1-[4-(2-aminopyrimidin-5-yl)phenyl]-N-[5-(2-methyl-1,3-thiazol-4-yl)pyridin-2-yl]cyclohexanecarboxamide]
IC50 [1]: 4 nM | IC50 [2]: 919 nM

CC(C)(C)c1nsc(NC(=O)C2(c3ccc(-c4cnc(N)nc4)cc3)CCOCC2)n1 [Example 124, 4-[4-(2-aminopyrimidin-5-yl)phenyl]-N-(3-tert-butyl-1,2,4-thiadiazol-5-yl)tetrahydro-2H-pyran-4-carboxamide]
IC50 [1]: 77.5 nM | IC50 [2]: 2170 nM

Nc1ncc(-c2ccc(C3(C(=O)Nc4cc(C(F)(F)F)no4)CCOCC3)cc2)cn1 [Example 125, 4-[4-(2-aminopyrimidin-5-yl)phenyl]-N-[3-(trifluoromethyl)-1,2-oxazol-5-yl]tetrahydro-2H-pyran-4-carboxamide]
IC50 [1]: 173 nM | IC50 [2]: 5560 nM

CC(C)(C)c1noc(NC(=O)C2(c3ccc(-c4cnc(N)nc4)cc3)CCCCC2)n1 [Example 126, 1-[4-(2-aminopyrimidin-5-yl)phenyl]-N-(3-tert-butyl-1,2,4-oxadiazol-5-yl)cyclohexanecarboxamide]
IC50 [1]: 180 nM | IC50 [2]: 12000 nM

CC(C)C(C)(C(=O)Nc1ccccn1)c1ccc(-c2cnc(N)nc2)cc1 (stereo not drawn) [Example 127, 2-[4-(2-aminopyrimidin-5-yl)phenyl]-2,3-dimethyl-N-(pyridin-2-yl)butanamide]
IC50 [1]: 9 nM | IC50 [2]: 3220 nM

Cc1nc(-c2ccc(NC(=O)C3(c4ccc(-c5cnc(N)nc5)cn4)CCOCC3)nc2)cs1 [Example 128, 4-[5-(2-aminopyrimidin-5-yl)pyridin-2-yl]-N-[5-(2-methyl-1,3-thiazol-4-yl)pyridin-2-yl]tetrahydro-2H-pyran-4-carboxamide]
IC50 [1]: 140 nM | IC50 [2]: 815 nM

Nc1ncc(-c2ccc(C3(C(=O)Nc4ccccn4)CCC3)cc2)cn1 [Example 129, 1-[4-(2-aminopyrimidin-5-yl)phenyl]-N-(pyridin-2-yl)cyclobutanecarboxamide]
IC50 [1]: 10.4 nM | IC50 [2]: 8620 nM

COc1cncc(-c2ccc(NC(=O)C3(c4ccc(-c5cnc(N)nc5)cc4)CCC3)nc2)c1 [Example 130, 1-[4-(2-aminopyrimidin-5-yl)phenyl]-N-(5'-methoxy-3,3'-bipyridin-6-yl)cyclobutanecarboxamide]
IC50 [1]: 1.52 nM | IC50 [2]: 224 nM

Cc1nc(-c2ccc(NC(=O)C3(c4ccc(-c5cnc(N)nc5)cc4)CCC3)nc2)cs1 [Example 131, 1-[4-(2-aminopyrimidin-5-yl)phenyl]-N-[5-(2-methyl-1,3-thiazol-4-yl)pyridin-2-yl]cyclobutanecarboxamide]
IC50 [1]: 2.2 nM | IC50 [2]: 414 nM

COc1cncc(-c2ccc(NC(=O)C3(c4ccc(-c5cnc(N)nc5)nc4)CCOCC3)nc2)c1 [Example 132, 4-[6-(2-aminopyrimidin-5-yl)pyridin-3-yl]-N-(5′-methoxy-3,3′-bipyridin-6-yl)tetrahydro-2H-pyran-4-carboxamide]
IC50 [1]: 220 nM | IC50 [2]: 1510 nM

Cc1nc(-c2ccc(NC(=O)C(c3ccc(-c4cnc(N)nc4)cc3)C(C)C)nc2)cs1 (stereo not drawn) [Example 133, 2-[4-(2-aminopyrimidin-5-yl)phenyl]-3-methyl-N-[5-(2-methyl-1,3-thiazol-4-yl)pyridin-2-yl]butanamide]
IC50 [1]: 9.4 nM | IC50 [2]: 4400 nM

COc1ccc(-c2ccc(NC(=O)C3(c4ccc(-c5cnc(N)nc5)cc4)CCOCC3)nc2)cn1 [Example 134, 4-[4-(2-aminopyrimidin-5-yl)phenyl]-N-(6'-methoxy-3,3'-bipyridin-6-yl)tetrahydro-2H-pyran-4-carboxamide]
IC50 [1]: 17.5 nM | IC50 [2]: 651 nM

COc1cncc(-c2ccc(NC(=O)C3(c4ccc(-c5cnc(N)nc5)cc4)CCOCC3)nc2)c1 [Example 135, 4-[4-(2-aminopyrimidin-5-yl)phenyl]-N-(5'-methoxy-3,3'-bipyridin-6-yl)tetrahydro-2H-pyran-4-carboxamide]
IC50 [1]: 11.1 nM | IC50 [2]: 738 nM

CC(C)C(C)(C(=O)Nc1ccc(Cl)cn1)c1ccc(-c2cnc(N)nc2)cc1 (stereo not drawn) [Example 136, 2-[4-(2-aminopyrimidin-5-yl)phenyl]-N-(5-chloropyridin-2-yl)-2,3-dimethylbutanamide]
IC50 [1]: 10.3 nM | IC50 [2]: 4690 nM

Nc1ncc(-c2ccc(C3(C(=O)Nc4ccccn4)CCOCC3)cc2)cn1 [Example 138, 4-[4-(2-aminopyrimidin-5-yl)phenyl]-N-(pyridin-2-yl)tetrahydro-2H-pyran-4-carboxamide]
IC50 [1]: 300 nM | IC50 [2]: 11800 nM

Nc1ncc(-c2ccc(C3(C(=O)Nc4ccc5ccccc5n4)CCOCC3)cc2)cn1 [Example 142, 4-[4-(2-aminopyrimidin-5-yl)phenyl]-N-(quinolin-2-yl)tetrahydro-2H-pyran-4-carboxamide]
IC50 [1]: 39 nM | IC50 [2]: 11300 nM

Nc1ncc(-c2ccc(C3(C(=O)Nc4ccc(-c5cscn5)cn4)CCOCC3)cc2)cn1 [Example 143, 4-[4-(2-aminopyrimidin-5-yl)phenyl]-N-[5-(1,3-thiazol-4-yl)pyridin-2-yl]tetrahydro-2H-pyran-4-carboxamide]
IC50 [1]: 17.1 nM | IC50 [2]: 646 nM

Cn1cnc(-c2ccc(NC(=O)C3(c4ccc(-c5cnc(N)nc5)cc4)CCOCC3)nc2)c1 [Example 144, 4-[4-(2-aminopyrimidin-5-yl)phenyl]-N-[5-(1-methyl-1H-imidazol-4-yl)pyridin-2-yl]tetrahydro-2H-pyran-4-carboxamide]
IC50 [1]: 66 nM | IC50 [2]: 1590 nM

COC(=O)c1ccc(NC(=O)C2(c3ccc(-c4cnc(N)nc4)cc3)CCOCC2)nc1 [Example 146, methyl 6-[({4-[4-(2-aminopyrimidin-5-yl)phenyl]tetrahydro-2H-pyran-4-yl}carbonyl)amino]pyridine-3-carboxylate]
IC50 [1]: 11.1 nM | IC50 [2]: 752 nM

Nc1ncc(-c2ccc(C3(C(=O)Nc4ccc(N5CCOCC5)cc4)CCOCC3)cc2)cn1 [Example 147, 4-[4-(2-aminopyrimidin-5-yl)phenyl]-N-[4-(mopholin-4-yl)phenyl]tetrahydro-2H-pyran-4-carboxamide]
IC50 [1]: 490 nM | IC50 [2]: 2900 nM

Nc1ncc(-c2ccc(C3(C(=O)Nc4ccc(CN5CCS(=O)(=O)CC5)cc4)CCOCC3)cc2)cn1 [Example 148, 4-[4-(2-aminopyrimidin-5-yl)phenyl]-N-{4-[(1,1-dioxidothiomorpholin-4-yl)methyl]phenyl}tetrahydro-2H-pyran-4-carboxamide]
IC50 [1]: 360 nM | IC50 [2]: 3980 nM

Nc1ncc(-c2ccc(C3(C(=O)Nc4ccc(N5CCCCC5)cc4)CCOCC3)cc2)cn1 [Example 149, 4-[4-(2-aminopyrimidin-5-yl)phenyl]-N-[4-(piperidin-1-yl)phenyl]tetrahydro-2H-pyran-4-carboxamide]
IC50 [1]: 260 nM | IC50 [2]: 1460 nM

CC(C)(C)OC(=O)N1CCc2cc(NC(=O)C3(c4ccc(-c5cnc(N)nc5)cc4)CCOCC3)ccc2C1 [Example 150, tert-butyl 6-[({4-[4-(2-aminopyrimidin-5-yl)phenyl]tetrahydro-2H-pyran-4-yl}carbonyl)amino]-3,4-dihydroisoquinolin-2(1H)-carboxylate]
IC50 [1]: 48 nM | IC50 [2]: 3590 nM

Cc1nc(-c2ccc(NC(=O)C3(c4ccc(-c5cnc6[nH]ccc6c5)cc4)CCOCC3)nc2)cs1 [Example 151, N-[5-(2-methyl-1,3-thiazol-4-yl)pyridin-2-yl]-4-[4-(1H-pyrrolo[2,3-b]pyridin-5-yl)phenyl]tetrahydro-2H-pyran-4-carboxamide]
IC50 [1]: 2.1 nM | IC50 [2]: 200 nM

Cc1nc(-c2ccc(NC(=O)C3(c4ccc(-c5cnc(N)c(C)c5)cc4)CCOCC3)nc2)cs1 [Example 152, 4-[4-(6-amino-5-methylpyridin-3-yl)phenyl]-N-[5-(2-methyl-1,3-thiazol-4-yl)pyridin-2-yl]tetrahydro-2H-pyran-4-carboxamide]
IC50 [1]: 34.5 nM | IC50 [2]: 896 nM

Cc1nc(-c2ccc(NC(=O)C3(c4ccc(-c5cnc6c(c5)CCN6)cc4)CCOCC3)nc2)cs1 [Example 153, 4-[4-(2,3-dihydro-1H-pyrrolo[2,3-b]pyridin-5-yl)phenyl]-N-[5-(2-methyl-1,3-thiazol-4-yl)pyridin-2-yl]tetrahydro-2H-pyran-4-carboxamide]
IC50 [1]: 7.8 nM | IC50 [2]: 509 nM

Nc1ncc(-c2ccc(C3(C(=O)Nc4ccc(-n5ccnc5)cc4)CCOCC3)cc2)cn1 [Example 154, 4-[4-(2-aminopyrimidin-5-yl)phenyl]-N-[4-(1H-imidazol-1-yl)phenyl]tetrahydro-2H-pyran-4-carboxamide]
IC50 [1]: 63.3 nM | IC50 [2]: 1370 nM

Nc1ncc(-c2ccc(C3(C(=O)Nc4ccncc4)CCOCC3)cc2)cn1 [Example 155, 4-[4-(2-aminopyrimidin-5-yl)phenyl]-N-(pyridin-4-yl)tetrahydro-2H-pyran-4-carboxamide]
IC50 [1]: 136 nM | IC50 [2]: 857 nM

CC(C)(C(=O)Nc1ccccn1)c1ccc(-c2cnc(N)nc2)cc1 [Example 158, 2-[4-(2-aminopyrimidin-5-yl)phenyl]-2-methyl-N-(pyridin-2-yl)propanamide]
IC50 [1]: 36 nM | IC50 [2]: 5270 nM

COc1cncc(-c2ccc(NC(=O)C(C)(c3ccc(-c4cnc(N)nc4)cc3)C(C)C)nc2)c1 (stereo not drawn) [Example 162, 2-[4-(2-aminopyrimidin-5-yl)phenyl]-N-(5'-methoxy-3,3'-bipyridin-6-yl)-2,3-dimethylbutanamide]
IC50 [1]: 4.1 nM | IC50 [2]: 896 nM
